Drawing on US20050075388A1 (published 2005), this text covers melting point for 16 compounds.

A value given as a limit tells only on which side of the number the result lay.

Take `O=c1oc2cc(O)cc(O)c2c(O)c1C1c2ccccc2Oc2c1c(=O)oc1cc(O)cc(O)c21` (stereo not shown): the melting point (in general, the temperature, or range, at which the solid turns liquid) was above 300 °C. Consider `O=c1oc2cc(O)ccc2c(O)c1C(CCCC(c1c(O)c2ccc(O)cc2oc1=O)c1c(O)c2ccc(O)cc2oc1=O)c1c(O)c2ccc(O)cc2oc1=O`, for which the melting point fell in the range of 299 to 302 °C. On to `O=Cc1ccccc1C(c1c(O)c2ccc(O)c(O)c2oc1=O)c1c(O)c2ccc(O)c(O)c2oc1=O`, for which the melting point is above 300 °C. In the case of `O=c1oc2cc(O)c(O)cc2c(O)c1C1=CCOc2oc3ccccc3c(=O)c21` it was 258 to 260 °C.

With `CCOC1Oc2c(c(=O)oc3ccccc23)C1c1c(O)c2ccccc2oc1=O` (stereo not shown), the melting point fell in the range of 166 to 169 °C. `O=Cc1ccccc1C(c1c(O)c2ccc(O)cc2oc1=O)c1c(O)c2ccc(O)cc2oc1=O` displayed a melting point above 300 °C. In the case of `O=c1oc2ccccc2c(O)c1C(CCCC(c1c(O)c2ccccc2oc1=O)c1c(O)c2ccccc2oc1=O)c1c(O)c2ccccc2oc1=O` it was 291 to 294 °C; in that of `O=c1oc2c(O)c(O)ccc2c(O)c1C(CCCC(c1c(O)c2ccc(O)c(O)c2oc1=O)c1c(O)c2ccc(O)c(O)c2oc1=O)c1c(O)c2ccc(O)c(O)c2oc1=O`, above 300 °C.

For the compound `COC1Oc2c(c(=O)oc3cc(O)ccc23)C1c1c(O)c2ccc(O)cc2oc1=O` (stereo not shown), the melting point is above 300 °C. Regarding `O=c1oc2cc(O)cc(O)c2c(O)c1C(CCCC(c1c(O)c2c(O)cc(O)cc2oc1=O)c1c(O)c2c(O)cc(O)cc2oc1=O)c1c(O)c2c(O)cc(O)cc2oc1=O`, the melting point was above 300 °C.

The compound `O=c1oc2cc(O)ccc2c(O)c1-c1coc2c1c(=O)oc1cc(O)ccc12` came in with a melting point above 300 °C. Turning to `O=c1oc2cc(O)c(O)cc2c(O)c1C(CCCC(c1c(O)c2cc(O)c(O)cc2oc1=O)c1c(O)c2cc(O)c(O)cc2oc1=O)c1c(O)c2cc(O)c(O)cc2oc1=O`, the melting point is above 300 °C. Consider `O=c1oc2ccccc2c(O)c1C1c2ccccc2Oc2c1c(=O)oc1ccccc21` (stereo not shown), for which the melting point was > 255 °C (dec.).

`O=CC(c1c(O)c2ccc(O)cc2oc1=O)c1c(O)c2ccc(O)cc2oc1=O` showed a melting point above 300 °C.

In turn, `O=c1oc2ccccc2c(O)c1C(CC(c1c(O)c2ccccc2oc1=O)c1c(O)c2ccccc2oc1=O)c1c(O)c2ccccc2oc1=O` had a melting point of 286 to 288 °C. In turn, `O=c1oc2cc(O)cc(O)c2c(O)c1C1=CCOc2oc3ccccc3c(=O)c21` registered a melting point of 254 to 256 °C.
